Source: ChEMBL document CHEMBL3596122, “Isoform-Selective and Stereoselective Inhibition of Hypoxia Inducible Factor-2” (J Med Chem, 2015)
Calls of active or inactive are those of the source. The rule behind the calls is not given here.

Tests used:
[1] = molecular target: T1, Endothelial PAS domain-containing protein 1 (Homo sapiens, UniProt Q99814)
Description: Binding affinity to wild type His6-Gbeta1-fused HIF-2alpha PAS-B domain (240 to 350) (unknown origin) expressed in Escherichia coli by ITC analysis

[2] = molecular target: T2, Endothelial PAS domain-containing protein 1 (Homo sapiens, UniProt Q99814, S304M)
[3] = molecular target: T1, Endothelial PAS domain-containing protein 1; remark: listed apart in the source
Description: Binding affinity to wild type GST-tagged HIF-2alpha PAS-B (240 to 350) (unknown origin) expressed in Escherichia coli assessed as inhibition of interaction with His6-Gbeta1/FLAG fused ARNT PAS-B after 4 hrs by AlphaScreen assay

Hep 3B2 = experiment: Effect on HIF-1-mediated PGK1 mRNA expression in human Hep3B cells at 0.01 to 10 uM by RT-PCR analysis; assay type: cell-based
[4] = molecular target: T2, Endothelial PAS domain-containing protein 1; experiment: Binding affinity to His6-Gbeta1-fused HIF-2alpha PAS-B domain S304M mutant (240 to 350) (unknown origin) expressed in Escherichia coli by ITC analysis
[5] = molecular target: Hypoxia-inducible factor 1-alpha (Homo sapiens, UniProt Q16665); experiment: Binding affinity to wild type GST-fused HIF-1alpha PAS-B domain (238 to 349) (unknown origin) expressed in Escherichia coli assessed as compound-protein complex formation by ITC analysis
[6] = molecular target: T1, Endothelial PAS domain-containing protein 1; experiment: Inhibition of HIF-2alpha in human Hep3B cells assessed as downregulation of EPO mRNA expression by RT-PCR analysis
[7] = molecular target: T1, Endothelial PAS domain-containing protein 1; conditions: Hep 3B2, 0.01 to 10 uM
Description: Inhibition of HIF-2alpha in human Hep3B cells assessed as downregulation of EPO mRNA expression at 0.01 to 10 uM by RT-PCR analysis

T2 sequence (Q99814 whole entry S304M, the tested form may be a part): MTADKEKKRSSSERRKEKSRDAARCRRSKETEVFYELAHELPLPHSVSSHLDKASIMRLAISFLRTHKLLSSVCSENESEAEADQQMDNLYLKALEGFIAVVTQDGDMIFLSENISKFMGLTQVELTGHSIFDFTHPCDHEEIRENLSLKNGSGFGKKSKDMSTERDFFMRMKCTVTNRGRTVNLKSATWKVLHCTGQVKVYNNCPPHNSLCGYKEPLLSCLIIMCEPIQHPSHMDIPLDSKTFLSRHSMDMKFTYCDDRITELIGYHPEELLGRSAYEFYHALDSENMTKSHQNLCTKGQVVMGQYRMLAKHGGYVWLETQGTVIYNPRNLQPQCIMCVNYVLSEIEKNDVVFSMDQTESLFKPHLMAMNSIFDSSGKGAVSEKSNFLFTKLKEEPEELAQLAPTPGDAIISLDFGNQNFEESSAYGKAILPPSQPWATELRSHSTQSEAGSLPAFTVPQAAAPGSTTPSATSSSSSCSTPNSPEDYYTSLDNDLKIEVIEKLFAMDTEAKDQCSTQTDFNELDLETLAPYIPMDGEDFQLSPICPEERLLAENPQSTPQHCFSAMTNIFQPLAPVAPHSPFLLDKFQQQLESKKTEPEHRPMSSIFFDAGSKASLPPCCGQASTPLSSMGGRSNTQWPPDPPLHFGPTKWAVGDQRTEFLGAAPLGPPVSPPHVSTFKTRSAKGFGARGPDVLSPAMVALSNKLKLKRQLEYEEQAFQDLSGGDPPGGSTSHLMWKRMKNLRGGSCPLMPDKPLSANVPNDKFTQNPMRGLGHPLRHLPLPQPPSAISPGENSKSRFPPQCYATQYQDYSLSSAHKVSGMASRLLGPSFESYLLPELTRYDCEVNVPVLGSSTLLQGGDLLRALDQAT
T1 sequence (Q99814 whole entry, the tested form may be a part): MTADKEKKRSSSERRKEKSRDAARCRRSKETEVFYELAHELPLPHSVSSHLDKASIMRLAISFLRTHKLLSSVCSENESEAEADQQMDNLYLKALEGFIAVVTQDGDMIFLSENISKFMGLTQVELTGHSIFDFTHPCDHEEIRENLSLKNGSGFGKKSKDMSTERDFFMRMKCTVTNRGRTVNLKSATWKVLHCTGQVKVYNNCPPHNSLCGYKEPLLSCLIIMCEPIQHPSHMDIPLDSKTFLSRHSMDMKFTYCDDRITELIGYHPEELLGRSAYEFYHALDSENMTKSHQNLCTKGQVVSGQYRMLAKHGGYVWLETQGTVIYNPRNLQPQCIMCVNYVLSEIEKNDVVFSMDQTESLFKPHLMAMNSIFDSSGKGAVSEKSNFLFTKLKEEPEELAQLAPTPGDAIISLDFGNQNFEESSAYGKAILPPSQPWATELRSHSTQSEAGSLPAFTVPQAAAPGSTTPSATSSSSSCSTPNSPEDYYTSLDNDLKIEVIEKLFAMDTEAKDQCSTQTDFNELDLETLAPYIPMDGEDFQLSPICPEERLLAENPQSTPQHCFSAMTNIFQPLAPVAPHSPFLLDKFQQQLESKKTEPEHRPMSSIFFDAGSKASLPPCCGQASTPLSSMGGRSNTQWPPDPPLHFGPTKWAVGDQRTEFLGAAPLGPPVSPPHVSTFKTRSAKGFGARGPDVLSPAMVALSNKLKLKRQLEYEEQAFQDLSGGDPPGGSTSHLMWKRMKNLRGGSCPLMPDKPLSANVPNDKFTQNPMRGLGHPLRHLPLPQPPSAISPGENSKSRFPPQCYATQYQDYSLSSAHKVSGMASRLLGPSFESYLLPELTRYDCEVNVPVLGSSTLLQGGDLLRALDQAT
Hypoxia-inducible factor 1-alpha, sequence (Q16665 whole entry, the tested form may be a part): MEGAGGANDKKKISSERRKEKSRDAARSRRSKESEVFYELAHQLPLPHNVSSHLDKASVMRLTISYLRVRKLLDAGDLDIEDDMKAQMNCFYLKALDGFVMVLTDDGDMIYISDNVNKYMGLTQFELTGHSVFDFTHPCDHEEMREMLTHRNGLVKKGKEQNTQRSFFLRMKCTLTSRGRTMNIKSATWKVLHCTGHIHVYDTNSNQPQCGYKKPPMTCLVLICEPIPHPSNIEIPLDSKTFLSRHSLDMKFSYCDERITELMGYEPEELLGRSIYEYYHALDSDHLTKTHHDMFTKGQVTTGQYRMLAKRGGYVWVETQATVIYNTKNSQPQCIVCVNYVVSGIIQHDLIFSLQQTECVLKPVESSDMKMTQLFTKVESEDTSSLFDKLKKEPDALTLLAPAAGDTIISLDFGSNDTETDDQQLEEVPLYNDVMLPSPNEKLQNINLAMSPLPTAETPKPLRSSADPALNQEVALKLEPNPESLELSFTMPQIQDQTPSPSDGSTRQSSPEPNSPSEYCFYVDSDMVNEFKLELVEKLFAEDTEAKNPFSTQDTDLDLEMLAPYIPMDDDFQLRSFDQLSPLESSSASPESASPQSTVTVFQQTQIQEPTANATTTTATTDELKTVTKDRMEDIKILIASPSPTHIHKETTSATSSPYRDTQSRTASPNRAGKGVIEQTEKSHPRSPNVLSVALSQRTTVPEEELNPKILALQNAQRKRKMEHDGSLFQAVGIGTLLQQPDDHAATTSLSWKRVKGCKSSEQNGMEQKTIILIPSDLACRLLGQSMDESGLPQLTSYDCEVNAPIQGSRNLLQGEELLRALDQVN

Structure (SMILES) | Kd [1] | IC50 [2] | IC50 [3] | further results
Fc1ccc(Cl)c(F)c1C1CC(c2cccc(Br)c2)Nc2nnnn21 (racemic) | 85 nM |  |  | 
Brc1cccc([C@H]2C[C@@H](c3ccccc3Br)n3nnnc3N2)c1 | > 2000 nM | > 30000 nM | 28300 nM | 
Brc1cccc([C@@H]2C[C@H](c3ccccc3Br)n3nnnc3N2)c1 | 360 nM | 18900 nM | 314 nM | 
Fc1c(Cl)ccc(Cl)c1C1CC(c2cccc(Br)c2)Nc2nnnn21 (racemic) | 194 nM |  |  | 
Fc1cc(Br)cc([C@@H]2C[C@H](c3cccc(Br)c3)n3nnnc3N2)c1 | 23 nM | 14500 nM | 43 nM | Activity (Hep 3B2): inactive; Kd [4]: 2000 nM; Kd [5]: > 5000 nM; IC50 [6]: < 1000 nM
Brc1cccc(C2CC(c3ccccc3I)n3nnnc3N2)c1 (racemic) | 766 nM |  |  | 
Fc1cc(Br)cc([C@H]2C[C@@H](c3ccccc3)n3nnnc3N2)c1 | > 2000 nM | > 30000 nM | > 30000 nM | 
Clc1ccc(Br)cc1C1CC(c2cccc(Br)c2)Nc2nnnn21 (racemic) | 126 nM |  |  | 
Clc1ccccc1[C@H]1C[C@@H](c2cccc(Br)c2)Nc2nnnn21 | 294 nM | 15900 nM | 195 nM | 
Fc1cc(Br)cc(C2CC(c3cccc(Br)c3)n3nnnc3N2)c1 (racemic) | 28 nM |  |  | 
Fc1ccc(Br)c(F)c1[C@@H]1C[C@H](c2cccc(Br)c2)Nc2nnnn21 | > 2000 nM | > 30000 nM | 22300 nM | 
Brc1cccc([C@H]2C[C@@H](c3cccc(Br)c3)n3nnnc3N2)c1 | > 2000 nM | > 30000 nM | > 30000 nM | 
Clc1ccc(Br)cc1[C@@H]1C[C@H](c2cccc(Br)c2)Nc2nnnn21 | > 2000 nM | > 30000 nM | > 30000 nM | 
Fc1c(Br)ccc(Cl)c1C1CC(c2cccc(Br)c2)Nc2nnnn21 (racemic) | 85 nM |  |  | 

Further lines, with some results ahead:

Kd [1] | IC50 [2] | IC50 [3] | Structure (SMILES) | further results
240 nM |  |  | Fc1c(Br)ccc(Br)c1C1CC(c2cccc(Br)c2)Nc2nnnn21 (racemic) | 
361 nM |  |  | Clc1ccccc1C1CC(c2cccc(Br)c2)Nc2nnnn21 (racemic) | 
34 nM | 3800 nM | 32 nM | Fc1ccc(Br)c(F)c1[C@H]1C[C@@H](c2cccc(Br)c2)Nc2nnnn21 | 
38 nM |  |  | Fc1c(Cl)cccc1C1CC(c2cccc(Br)c2)Nc2nnnn21 (racemic) | 
159 nM |  |  | Fc1ccc(I)cc1C1CC(c2cccc(Br)c2)Nc2nnnn21 (racemic) | 
> 2000 nM | > 30000 nM | > 30000 nM | Clc1ccccc1[C@@H]1C[C@H](c2cccc(Br)c2)Nc2nnnn21 | 
327 nM |  |  | Fc1ccccc1C1CC(c2cccc(Br)c2)Nc2nnnn21 (racemic) | 
116 nM |  |  | Clc1cccc(C2CC(c3cccc(Br)c3)Nc3nnnn32)c1 (racemic) | 
216 nM |  |  | Fc1cc(Br)cc(C2CC(c3ccccc3)n3nnnc3N2)c1 (racemic) | 
393 nM |  |  | Fc1ccc(F)c(C2CC(c3cccc(Br)c3)Nc3nnnn32)c1F (racemic) | 
165 nM | 10100 nM | 97 nM | Fc1cc(Br)cc([C@@H]2C[C@H](c3ccccc3)n3nnnc3N2)c1 | 
49 nM |  |  | Fc1ccc(Br)c(F)c1C1CC(c2cccc(Br)c2)Nc2nnnn21 (racemic) | 
> 2000 nM | > 30000 nM | > 30000 nM | Fc1cc(Br)cc([C@H]2C[C@@H](c3cccc(Br)c3)n3nnnc3N2)c1 | inhibition [7]: inactive
63 nM | > 30000 nM | 112 nM | Brc1cccc([C@@H]2C[C@H](c3cccc(Br)c3)n3nnnc3N2)c1 | 
1170 nM |  |  | CC(C)CC1CC(c2cccc(Br)c2)Nc2nnnn21 (racemic) | 
411 nM |  |  | Fc1ccc(Br)c(Cl)c1C1CC(c2cccc(Br)c2)Nc2nnnn21 (racemic) | 
125 nM | 23900 nM | 87 nM | Clc1ccc(Br)cc1[C@H]1C[C@@H](c2cccc(Br)c2)Nc2nnnn21 | 
400 nM |  |  | Brc1cccc(C2CC(c3ccccc3Br)n3nnnc3N2)c1 (racemic) | 
70 nM |  |  | Brc1cccc(C2CC(c3cccc(Br)c3)n3nnnc3N2)c1 (racemic) | 
